# Source: patent publication US20240216344A1, “THIAZOLIDINEDIONE ANALOGS FOR THE TREATMENT OF NAFLD AND METABOLIC DISEASES” (Cirius Therapeutics, Inc., priority 2019, published 2024)
# Columns and labels:
# [1] = tested on: cell functions and key regulatory proteins; experiment: Impact of MSDC-0602K vs overnutrition on cell functions and key regulatory proteins (Table 1)
# [2] = tested on: patients with biopsy-proven NASH with fibrosis and no cirrhosis; experiment: EMMINENCE Phase 2b trial, markers of glucose metabolism, liver enzymes, fibrosis and apoptosis biomarkers; format: in vivo, human; settings: for Glucose, LS mean change from baseline to 6 months / Glucose, LS mean difference vs placebo at 6 months / HOMA IR, LS mean change from baseline to 6 months / HOMA IR, LS mean difference vs placebo at 6 months / HgBA1C, LS mean change from baseline to 6 months / HgBA1C, LS mean difference vs placebo at 6 months / Insulin, LS mean change from baseline to 6 months / Insulin, LS mean difference vs placebo at 6 months: patients with HbA1C >7%
# Description: Study Design: EMMINENCE was a randomized, double-blind evaluation of three oral daily doses of MSDC-0602K (62.5 mg, 125 mg and 250 mg) or placebo given for 12 months to adult patients with biopsy-proven NASH with fibrosis and no cirrhosis. The primary efficacy endpoint was assessed at 12 months. Clinic visits were conducted at baseline, 1, 2, 3, 6, 9, and 12 months, followed 2 weeks later by a safety visit. An interim analysis of safety and efficacy not related to the primary and secondary endpoints was conducted when 6 month data were available for 328 patients (see Example 5, above.) Interim results were provided only as summary statistics to avoid any unmasking of the study team or sponsor.
# If no usable liver biopsy was available within 9 months prior to screening, a percutaneous liver biopsy was performed in patients with AST≥20 U/L and FibroScan CAP score ≥270 db/m and kPa≥8.5. Digitized slides were read by a single expert histopathologist according to NASH Clinical Research Network criteria. Baseline biopsies were read first for study qualification and a second time mixed randomly among 12-month biopsies. Fasting blood samples for routine central laboratory analyses were collected at each visit, and frozen samples collected at selected visits for biomarker assays.
# Efficacy endpoints: The primary efficacy endpoint was hepatic histological improvement in NAS defined as ≥2-point NAS decrease with a ≥1-point reduction in either ballooning or lobular inflammation and no increase in fibrosis stage at 12 months. Secondary efficacy endpoints included (1) NASH resolution defined as hepatocellular ballooning score of 0 and lobular inflammation score of 0-1 with no increase in fibrosis stage at 12 months, (2) fibrosis improvement defined as ≥1-stage decrease in fibrosis with no worsening of lobular inflammation or hepatocellular ballooning, (3) change from baseline in NAFLD activity score (NAS) and each one of its components (steatosis, lobular inflammation and ballooning) at 12 months, and (4) change from baseline in fibrosis score at 12 months. Exploratory efficacy endpoints included shifts in the central histopathologist's NASH diagnosis confirmation, and changes from baseline to 12 months in markers of glycemic control and insulin sensitivity, liver function/injury, and apoptosis and liver fibrosis.
# Using a modified intent-to-treat approach, treated patients were included for analysis in their randomly-assigned treatment groups. Participation of sites with serious GCP or quality concerns were terminated and their data excluded from the analyses. Post-baseline measures through 14 days after the last study drug dose were included. No errors in treatment assignment occurred. The central histopathologist's re-read of baseline biopsies was used as baseline. Patients who no longer qualified on re-read were included in the analyses. Each active treatment group was compared to placebo with respect to the primary and secondary histopathologic endpoints using logistic regression including adjustment for randomization strata (diabetes mellitus, baseline fibrosis F1 versus F2/F3), and ordinal baseline NAS. Stratification-adjusted risk differences adjusted similarly are provided. The primary analyses included only observed data; sensitivity analyses included multiply-imputing missing follow-up and considering missing follow-up as a non-responder. Each active dose was compared to placebo regarding changes in NASH CRN scores using analysis of covariance with adjustment for age, sex, diabetes mellitus, Vitamin E≥400 IU, baseline fibrosis F1 versus F2/F3, and the baseline value. Changes in laboratory markers from baseline to 6 months and to 12 months were analyzed similarly.
# Post-hoc analyses: Each active dose was compared to placebo regarding the proportion where the pathologist's NASH diagnosis shifted from confirmed at baseline (re-read) to not confirmed at month 12 using logistic regression. […]
smiles,measurement,setting,value
COc1cccc(C(=O)COc2ccc(CC3SC(=O)NC3=O)cc2)c1 (stereo not drawn) [MSDC-0602K],Fatty acid oxidation (burning fat),[1],Increased
same,HIF1α,[1],Decreased
same,Inflammation (ballooning due to injury),[1],Decreased
same,Insulin sensitivity (cellular response to insulin),[1],Increased
same,"PPARγ, PPARα",[1],Increased
same,SREBP,[1],Decreased
same,de novo lipid synthesis (making new fat),[1],Decreased
same,mTORC1,[1],Decreased
same,proportion of patients with baseline ALT above 19 (women) and 30 (men) U/L whose levels were normal at 12 months,[2]; 62.5 mg,10.6%
same,proportion of patients with baseline ALT above 19 (women) and 30 (men) U/L whose levels were normal at 12 months,[2]; 125 mg,20.8%
same,proportion of patients with baseline ALT above 19 (women) and 30 (men) U/L whose levels were normal at 12 months,[2]; 250 mg,33.3%
same,proportion of patients with baseline ALT above 19 (women) and 30 (men) U/L whose levels were normal at 12 months,[2]; combined 125 and 250 mg dose groups,27.2%
same,"Glucose, LS mean change from baseline to 6 months",[2]; 62.5 mg,-2.42 mmol/L
same,"Glucose, LS mean difference vs placebo at 6 months",[2]; 62.5 mg,-1.18 mmol/L
same,"HOMA IR, LS mean change from baseline to 6 months",[2]; 62.5 mg,−6.472
same,"HOMA IR, LS mean difference vs placebo at 6 months",[2]; 62.5 mg,−1.964
same,"HgBA1C, LS mean change from baseline to 6 months",[2]; 62.5 mg,−0.61%
same,"HgBA1C, LS mean difference vs placebo at 6 months",[2]; 62.5 mg,−0.18 %
same,"Insulin, LS mean change from baseline to 6 months",[2]; 62.5 mg,−7.724 uIU/mL
same,"Insulin, LS mean difference vs placebo at 6 months",[2]; 62.5 mg,−2.242 uIU/mL
same,"Glucose, LS mean change from baseline to 6 months",[2]; 125 mg,-3.48 mmol/L
same,"Glucose, LS mean difference vs placebo at 6 months",[2]; 125 mg,-2.23 mmol/L
same,"HOMA IR, LS mean change from baseline to 6 months",[2]; 125 mg,−8.178
same,"HOMA IR, LS mean difference vs placebo at 6 months",[2]; 125 mg,−3.669
same,"HgBA1C, LS mean change from baseline to 6 months",[2]; 125 mg,−1.43%
same,"HgBA1C, LS mean difference vs placebo at 6 months",[2]; 125 mg,−1.01%
same,"Insulin, LS mean change from baseline to 6 months",[2]; 125 mg,−8.208 uIU/mL
same,"Insulin, LS mean difference vs placebo at 6 months",[2]; 125 mg,−2.726 uIU/mL
same,"Glucose, LS mean change from baseline to 6 months",[2]; 250 mg,-3.24 mmol/L
same,"Glucose, LS mean difference vs placebo at 6 months",[2]; 250 mg,-1.99 mmol/L
same,"HOMA IR, LS mean change from baseline to 6 months",[2]; 250 mg,−8.197
same,"HOMA IR, LS mean difference vs placebo at 6 months",[2]; 250 mg,−3.689
same,"HgBA1C, LS mean change from baseline to 6 months",[2]; 250 mg,−1.00%
same,"HgBA1C, LS mean difference vs placebo at 6 months",[2]; 250 mg,−0.58%
same,"Insulin, LS mean change from baseline to 6 months",[2]; 250 mg,−10.066 uIU/mL
same,"Insulin, LS mean difference vs placebo at 6 months",[2]; 250 mg,−4.584 uIU/mL
